Assay results from the CheMixHub viscosity set.

Assay: xn = mol fraction of the nth substance listed

BrC(Br)Br + CCCCO
viscosity [mPa·s], 101.3 kPa
Conditions	x1 = 0.099	x1 = 0.205	x1 = 0.3	x1 = 0.401	x1 = 0.501	x1 = 0.602	x1 = 0.699	x1 = 0.803	x1 = 0.899
298.15 K	2.482	2.339	2.196	2.063	1.955	1.887	1.847	1.817	1.827
303.15 K	2.183	2.07	1.942	1.841	1.768	1.718	1.695	1.684	1.709
308.15 K	1.915	1.828	1.738	1.662	1.607	1.573	1.559	1.564	1.588

C=Cc1ccccc1 + CCCCO
viscosity [mPa·s], 101.33 kPa
Conditions	x1 = 0.0999	x1 = 0.2019	x1 = 0.2994	x1 = 0.3982	x1 = 0.5226	x1 = 0.602	x1 = 0.703	x1 = 0.7942	x1 = 0.8935
298.15 K	1.971	1.644	1.368	1.165	0.969	0.913	0.821	0.772	0.729
303.15 K	1.809	1.47	1.23	1.052	0.885	0.83	0.767	0.721	0.681
308.15 K	1.636	1.327	1.104	0.95	0.811	0.762	0.693	0.66	0.63

CCCCCCCCO + CCCCO
viscosity [mPa·s], 101 kPa
Conditions	298.15 K	308.15 K	318.15 K
x2 = 0.05	7.06	5.06	3.734
x2 = 0.1	6.764	4.867	3.602
x2 = 0.15	6.475	4.678	3.472
x2 = 0.2	6.193	4.492	3.345
x2 = 0.25	5.917	4.309	3.22
x2 = 0.3	5.646	4.129	3.097
x2 = 0.35	5.382	3.953	2.975
x2 = 0.4	5.123	3.779	2.855
x2 = 0.45	4.87	3.608	2.736
x2 = 0.5	4.622	3.44	2.618
x2 = 0.55	4.38	3.275	2.502
x2 = 0.6	4.145	3.113	2.388
x2 = 0.65	3.915	2.955	2.275
x2 = 0.7	3.692	2.8	2.164
x2 = 0.75	3.476	2.649	2.055
x2 = 0.8	3.268	2.502	1.948
x2 = 0.85	3.067	2.36	1.845
x2 = 0.9	2.875	2.223	1.744
x2 = 0.95	2.693	2.092	1.648

CC(C)(C)N + CCCCOC(C)=O
303.15 K, 101 kPa
Conditions	viscosity [mPa·s]
x1 = 0.1472	0.6309
x1 = 0.229	0.6186
x1 = 0.3626	0.5943
x1 = 0.435	0.5852
x1 = 0.5578	0.5545
x1 = 0.6566	0.5313
x1 = 0.7339	0.5091
x1 = 0.8272	0.4861

BrC(Br)Br + CCCO
viscosity [mPa·s], 101 kPa
Conditions	x1 = 0.0998	x1 = 0.1979	x1 = 0.2988	x1 = 0.4005	x1 = 0.5	x1 = 0.5953	x1 = 0.69	x1 = 0.7999	x1 = 0.9007
298.15 K	1.964	1.932	1.879	1.813	1.782	1.767	1.768	1.786	1.853
303.15 K	1.737	1.716	1.681	1.647	1.623	1.621	1.632	1.674	1.734
308.15 K	1.543	1.528	1.506	1.481	1.481	1.49	1.505	1.559	1.618
313.15 K	1.363	1.363	1.354	1.339	1.352	1.379	1.393	1.448	1.515

C=Cc1ccccc1 + CCCO
298.15 K, 101.33 kPa
Conditions	viscosity [mPa·s]
x1 = 0.0999	1.594
x1 = 0.1997	1.326
x1 = 0.298	1.153
x1 = 0.3952	1.011
x1 = 0.4985	0.892
x1 = 0.6022	0.815
x1 = 0.6984	0.762
x1 = 0.7985	0.727
x1 = 0.9019	0.707

CCC(C)(C)OC + CCCO
298.15 K, 101.33 kPa
Conditions	viscosity [mPa·s]
x1 = 0.0142	1.889
x1 = 0.0405	1.759
x1 = 0.0642	1.647
x1 = 0.0889	1.548
x1 = 0.1148	1.461
x1 = 0.152	1.33
x1 = 0.2075	1.18
x1 = 0.2876	1.002
x1 = 0.289	0.999
x1 = 0.3381	0.912
x1 = 0.3924	0.833
x1 = 0.4452	0.767
x1 = 0.489	0.72
x1 = 0.5363	0.677
x1 = 0.5867	0.633
x1 = 0.645	0.594
x1 = 0.6933	0.564
x1 = 0.7588	0.53
x1 = 0.8347	0.496
x1 = 0.9093	0.455
x1 = 0.947	0.454

CCCCCCCCO + CCCO
viscosity [mPa·s], 101 kPa
Conditions	298.15 K	308.15 K	318.15 K
x2 = 0.05	7.025	4.92	3.71
x2 = 0.1	6.694	4.637	3.555
x2 = 0.15	6.37	4.394	3.406
x2 = 0.2	6.052	4.183	3.261
x2 = 0.25	5.742	3.995	3.12
x2 = 0.3	5.438	3.824	2.982
x2 = 0.35	5.141	3.663	2.847
x2 = 0.4	4.851	3.507	2.713
x2 = 0.45	4.568	3.353	2.581
x2 = 0.5	4.291	3.197	2.45
x2 = 0.55	4.021	3.036	2.32
x2 = 0.6	3.758	2.869	2.191
x2 = 0.65	3.501	2.696	2.063
x2 = 0.7	3.249	2.517	1.936
x2 = 0.75	3.003	2.333	1.811
x2 = 0.8	2.762	2.147	1.687
x2 = 0.85	2.526	1.962	1.565
x2 = 0.9	2.294	1.782	1.445
x2 = 0.95	2.065	1.612	1.329

CC(=O)c1ccc(Cl)cc1 + CCNc1ccccc1
303.15 K, 100 kPa
Conditions	viscosity [mPa·s]
x2 = 0.0798	2.295
x2 = 0.1568	2.242
x2 = 0.2321	2.191
x2 = 0.2989	2.147
x2 = 0.3614	2.106
x2 = 0.4467	2.051
x2 = 0.5163	2.008
x2 = 0.5841	1.967
x2 = 0.6601	1.922
x2 = 0.7245	1.885
x2 = 0.7874	1.85
x2 = 0.8487	1.818
x2 = 0.9042	1.788

C=Cc1ccccc1 + CCO
viscosity [mPa·s], 101.33 kPa
Conditions	x1 = 0.0997	x1 = 0.1994	x1 = 0.3013	x1 = 0.3987	x1 = 0.5004	x1 = 0.6011	x1 = 0.7001	x1 = 0.7976	x1 = 0.8989
298.15 K	1.01	0.932	0.849	0.798	0.764	0.747	0.737	0.731	0.72
303.15 K	0.93	0.861	0.777	0.735	0.711	0.701	0.693	0.688	0.679
308.15 K	0.848	0.786	0.711	0.681	0.661	0.652	0.645	0.64	0.634

CC#N + CCO
viscosity [mPa·s]
Conditions	293.15 K	298.15 K	303.15 K	308.15 K	313.15 K
101 kPa, x1 = 0.0898	–	0.87	0.736	0.632	–
101 kPa, x1 = 0.187	–	0.71	0.606	0.523	–
101 kPa, x1 = 0.2973	–	0.594	0.518	0.454	–
101 kPa, x1 = 0.396	–	0.517	0.455	0.405	–
101 kPa, x1 = 0.4843	–	0.463	0.409	0.364	–
101 kPa, x1 = 0.5987	–	0.416	0.37	0.334	–
101 kPa, x1 = 0.7114	–	0.376	0.342	0.309	–
101 kPa, x1 = 0.8072	–	0.357	0.325	0.298	–
101 kPa, x1 = 0.9139	–	0.345	0.314	0.29	–
101.3 kPa, x1 = 0.1107	–	0.85	0.779	0.715	0.656
101.3 kPa, x1 = 0.2192	–	0.693	0.642	0.589	0.542
101.3 kPa, x1 = 0.3249	–	0.584	0.545	0.499	0.467
101.3 kPa, x1 = 0.4279	–	0.506	0.473	0.444	0.417
101.3 kPa, x1 = 0.5288	–	0.458	0.428	0.405	0.38
101.3 kPa, x1 = 0.6267	–	0.414	0.391	0.377	0.352
101.3 kPa, x1 = 0.7236	–	0.392	0.366	0.347	0.331
101.3 kPa, x1 = 0.8179	–	0.37	0.349	0.333	0.316
101.3 kPa, x1 = 0.9099	–	0.354	0.336	0.317	0.301
101.33 kPa, x1 = 0.04	1.12	–	–	–	–
101.33 kPa, x1 = 0.1	0.9979	–	–	–	–
101.33 kPa, x1 = 0.12	0.939	–	–	–	–
101.33 kPa, x1 = 0.17	0.9065	–	–	–	–
101.33 kPa, x1 = 0.28	0.7033	–	–	–	–
101.33 kPa, x1 = 0.33	0.6415	–	–	–	–
101.33 kPa, x1 = 0.43	0.5585	–	–	–	–
101.33 kPa, x1 = 0.67	0.4418	–	–	–	–
101.33 kPa, x1 = 0.83	0.4001	–	–	–	–

CCCCCCCCO + CCO
viscosity [mPa·s], 101 kPa
Conditions	298.15 K	303.15 K	308.15 K	318.15 K
x2 = 0.05	6.909	–	4.994	3.689
x2 = 0.1	6.475	–	4.73	3.51
x2 = 0.1301	–	5.471	–	–
x2 = 0.15	6.058	–	4.466	3.331
x2 = 0.2	5.658	–	4.204	3.154
x2 = 0.243	–	4.607	–	–
x2 = 0.25	5.273	–	3.945	2.979
x2 = 0.3	4.903	–	3.69	2.805
x2 = 0.3339	–	4.001	–	–
x2 = 0.35	4.546	–	3.441	2.634
x2 = 0.4	4.202	–	3.198	2.466
x2 = 0.45	3.871	–	2.961	2.301
x2 = 0.5	3.552	–	2.733	2.14
x2 = 0.5477	–	2.922	–	–
x2 = 0.55	3.245	–	2.512	1.982
x2 = 0.6	2.951	–	2.3	1.828
x2 = 0.65	2.668	–	2.096	1.678
x2 = 0.6979	–	2.169	–	–
x2 = 0.7	2.398	–	1.901	1.532
x2 = 0.75	2.141	–	1.714	1.391
x2 = 0.8	1.897	–	1.535	1.254
x2 = 0.8094	–	1.689	–	–
x2 = 0.85	1.668	–	1.364	1.121
x2 = 0.8948	–	1.362	–	–
x2 = 0.9	1.453	–	1.199	0.9926
x2 = 0.95	1.255	–	1.04	0.8687
x2 = 0.9602	–	1.121	–	–

CC(=O)c1ccc(Cl)cc1 + CCOC(=O)OCC
303.15 K, 101 kPa
Conditions	viscosity [mPa·s]
x2 = 0.0511	2.657
x2 = 0.1131	2.468
x2 = 0.1611	2.309
x2 = 0.2221	2.126
x2 = 0.2808	1.948
x2 = 0.3435	1.765
x2 = 0.4256	1.557
x2 = 0.5032	1.372
x2 = 0.6089	1.162
x2 = 0.6807	1.045
x2 = 0.7618	0.927
x2 = 0.8127	0.877
x2 = 0.8641	0.825
x2 = 0.9197	0.774
x2 = 0.9678	0.725

BrC(Br)Br + CCOC(C)=O
viscosity [mPa·s]
Conditions	x1 = 0.2695	x1 = 0.2713	x1 = 0.5228	x1 = 0.529	x1 = 0.7671	x1 = 0.7683
298 K, 101.3 kPa	–	0.754	–	1.141	–	1.565
318 K, 101.33 kPa	0.6005	–	0.8779	–	1.179	–
